Source: PubChem BioAssay AID1648 (Sanford-Burnham Center for Chemical Genomics, 2009)
Activity calls are given as the source filed them. The rule behind the calls is not given here.

These molecules were tested against Serine/threonine-protein kinase mTOR (Homo sapiens) (UniProt P42345) (assay: mTOR FRB domain ligand binding – biophysical, NMR (AID 1648)). Conditions: NMR binding to FRB domain, chemical shift.
Serine/threonine-protein kinase mTOR (Homo sapiens), sequence (P42345 2015-2114): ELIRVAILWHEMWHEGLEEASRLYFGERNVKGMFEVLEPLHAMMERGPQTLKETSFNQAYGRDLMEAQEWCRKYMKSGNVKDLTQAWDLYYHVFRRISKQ

Row | Compound | Kd
1 | O=C(Nc1ccccc1[N+](=O)[O-])c1ccc(=O)[nH]n1 | > 4 mM (inactive)
2 | CC(=O)Nc1ccc(NC(=O)c2ccncc2)cc1 | > 4 mM (inactive)
3 | CC1(C)NCCN2C(=O)CSC21 (centres undefined) | > 4 mM (inactive)
4 | O=C(Nn1cnnc1)c1cc2c(s1)CCCC2 | > 4 mM (inactive)
5 | C[C@]12CCC3C(CC[C@]4(O)C[C@@H](O)CC[C@]34C=O)[C@@]1(O)CCC2C1=CC(=O)OC1 (some centres undefined) | > 4 mM (inactive)
6 | CC(=O)Nc1cc(C(F)(F)F)ccc1N1CCOCC1 | > 4 mM (inactive)
7 | CC(C)(C)c1cc(NC(=O)c2cccnc2)no1 | > 4 mM (inactive)
8 | Nc1cc(=O)[nH]c(=O)n1Cc1ccco1 | > 4 mM (inactive)
9 | CC(C)(C)NC(=O)N1CCC(C(=O)O)CC1 | > 4 mM (inactive)
10 | NC(=O)CSCc1c(Cl)cccc1Cl | > 4 mM (inactive)
11 | CNC(=O)c1cc(S(=O)(=O)N(C)C)ccc1Cl | > 4 mM (inactive)
12 | CC(C)/C(O)=C1/C(=O)O[C@@H](c2ccoc2)[C@]2(C)C(O)[C@@H](O)[C@@]34OC5(C)OC67CC(C)(C(O)[C@]6(O)[C@@H](O)[C@]3(O5)C12)[C@H](CC(=O)O)[C@]74C (some centres undefined) | > 4 mM (inactive)
13 | CCC(/C=C/[C@@H](C)[C@H]1CCC2C3CC=C4C[C@@H](O)CC[C@]4(C)C3CC[C@@]21C)C(C)C (some centres undefined) | > 4 mM (inactive)
14 | NC(=O)C1CCN(c2ccc(Cl)nn2)CC1 | > 4 mM (inactive)
15 | CNC(=O)c1cc2cccc(OC)c2oc1=O | > 4 mM (inactive)
16 | COc1cc(S(=O)(=O)Nc2cccnc2)ccc1F | > 4 mM (inactive)
17 | CS(=O)(=O)NC1CCN(Cc2ccccc2)CC1 | > 4 mM (inactive)
18 | CC12CCCC(O)(C1)C1CC(C)(C)C1CC2 (centres undefined) | > 4 mM (inactive)
19 | CC(C)(C)Cc1nc(-c2ccccn2)no1 | > 4 mM (inactive)
20 | Cc1n[nH]c(=S)n(/N=C/c2cccs2)c1=O | > 4 mM (inactive)
21 | Cc1cc(C(=O)N2CCN(c3ncccn3)CC2)cs1 | > 4 mM (inactive)
22 | CC(=O)Nc1cccs1 | > 4 mM (inactive)
23 | Cc1cc([N+](=O)[O-])cc[n+]1[O-] | > 4 mM (inactive)

Row | Compound | Kd
24 | CS(=O)(=O)Nc1ccc(C(=O)N2CCCCC2)cc1 | > 4 mM (inactive)
25 | Nc1nncn1C(=O)c1ccccc1Cl | > 4 mM (inactive)
26 | CC(=O)Nc1sc(C)c(C)c1C(N)=O | > 4 mM (inactive)
27 | Cc1nc(SCC#N)c2c(C)c(C)sc2n1 | > 4 mM (inactive)
28 | COc1ccc(C2(CN)CCOCC2)cc1OC | > 4 mM (inactive)
29 | CC1(O)CC2C(CC1O)C2(C)C (centres undefined) | > 4 mM (inactive)
30 | Cc1cc(=O)n2ccc(CN3CCOCC3)c(O)c2n1 | > 4 mM (inactive)
31 | O=C(NN1C(=O)C2C3C=CC(C3)C2C1=O)C1CC=CCC1 (centres undefined) | > 4 mM (inactive)
32 | Cc1nnc(NCc2ccc3c(c2)OCO3)[nH]c1=O | > 4 mM (inactive)
33 | Cc1ccc(S(=O)(=O)CC(=O)N2CCCC2)cc1 | > 4 mM (inactive)
34 | O=C(c1ccccc1-c1ccccc1)N1CCOCC1 | > 4 mM (inactive)
35 | S=C(c1ccc(N2CCOCC2)cc1)N1CCOCC1 | > 4 mM (inactive)
36 | O=S1(=O)CCC(NC(=S)Nc2ccccc2)C1 (centres undefined) | > 4 mM (inactive)
37 | O=C(CSc1ncn[nH]1)c1ccc2c(c1)OCO2 | > 4 mM (inactive)
38 | CN1CCC(N(C)C2CCN(C)CC2)CC1 | > 4 mM (inactive)
39 | NC(=O)c1cccc(Cl)n1 | > 4 mM (inactive)
40 | COC(=O)CSc1ncnc2c(C)csc12 | > 4 mM (inactive)
41 | O=C1C2CCCCC2C(=O)N1Cc1cccnc1 (centres undefined) | > 4 mM (inactive)
42 | CC(=O)OC/C=C(\C)CC/C=C(\C)CC/C=C(\C)CC/C=C(\C)CC/C=C(\C)CC/C=C(\C)CC/C=C(\C)CC/C=C(\C)CCC=C(C)C | > 4 mM (inactive)
43 | CCOc1ccc(C)cc1S(=O)(=O)n1ccnc1 | > 4 mM (inactive)
44 | CSc1nc(O)cc(=O)[nH]1 | > 4 mM (inactive)
45 | COc1cc2nc(N3CCNCC3)nc(N)c2cc1OC | > 4 mM (inactive)
46 | c1cc(CNc2ccc3c(c2)OCCO3)ccn1 | > 4 mM (inactive)

Row | Compound | Kd
47 | CC(=O)Oc1cc2c(C(C)=O)coc2c2ccccc12 | > 4 mM (inactive)
48 | O=C1CCCC2C3CC(CN12)[C@@H]1CCCCN1C3 (some centres undefined) | > 4 mM (inactive)
49 | O=C1C2CCCCC2C(=O)N1c1nccs1 (centres undefined) | > 4 mM (inactive)
50 | Cn1ncc(N2CCOCC2)c(Cl)c1=O | > 4 mM (inactive)
51 | Cc1cc(-c2ccc(Cl)cc2)n2nc(N)nc2n1 | > 4 mM (inactive)
52 | Cc1nc2ccccc2c(=O)n1NC(=O)Nc1ccccc1 | > 4 mM (inactive)
53 | O=C(c1cc2ccccc2o1)N1CCCCCC1 | > 4 mM (inactive)
54 | COC(=O)[C@@H]1C(O)CC[C@H]2CN3CCc4c([nH]c5ccccc45)[C@@H]3C[C@@H]21 (some centres undefined) | > 4 mM (inactive)
55 | O=c1[nH]cc(S(=O)(=O)N2CCc3ccccc32)c(=O)[nH]1 | > 4 mM (inactive)
56 | O=S(=O)(Nc1ccc2c(c1)OCCO2)c1cccs1 | > 4 mM (inactive)
57 | CC(=O)Oc1ccc(/C=C/c2cc(OC(C)=O)cc(OC(C)=O)c2)cc1 | > 4 mM (inactive)
58 | CCc1c(C(=O)N2CCOCC2)csc1C | > 4 mM (inactive)
59 | Fc1cccc(Cl)c1CN1CCNCC1 | > 4 mM (inactive)
60 | C=C1C2CC[C@@]3(C)[C@H](c4ccoc4)OC(=O)C[C@]13O[C@H]1C[C@H](OC(C)=O)C(C)(C)[C@H](CC(=O)OC)[C@@]21C | > 4 mM (inactive)
61 | CCC(=O)n1nc(-c2ccco2)nc1N | > 4 mM (inactive)
62 | O=C(c1cnsn1)N1CCN(c2ccccc2)CC1 | > 4 mM (inactive)
63 | CN(C)CCNC(CC(=O)Nc1ccccc1)C(=O)O (centres undefined) | > 4 mM (inactive)
64 | C=C[C@@]1(C)CC(=O)[C@@]2(O)[C@](C)(O1)[C@@H](OC(C)=O)[C@@H](O)C1C(C)(C)CC[C@H](O)[C@@]12C (some centres undefined) | > 4 mM (inactive)
65 | NCC1CN(Cc2ccccc2)CCO1 (centres undefined) | > 4 mM (inactive)
66 | CC(=O)OCC(OC(C)=O)C(OC(C)=O)C(OC(C)=O)C(OC(C)=O)C(COC(C)=O)OC(C)=O (centres undefined) | > 4 mM (inactive)
67 | O=CN1CCN(C(=O)c2ccccc2F)CC1 | > 4 mM (inactive)
68 | Cc1ccccc1C(=O)Nn1cnnc1 | > 4 mM (inactive)
69 | O=C(O)c1ccc2c(c1)OCCCO2 | > 4 mM (inactive)

Row | Compound | Kd
70 | O=C1C=CC(=O)N1c1ccc(N2CCOCC2)cc1 | > 4 mM (inactive)
71 | CCCNC(=O)CSc1ncccc1C(=O)O | > 4 mM (inactive)
72 | CSc1nn(-c2ccccc2)c(N)c1C#N | > 4 mM (inactive)
73 | Nc1ncnc(NCc2cccnc2)c1[N+](=O)[O-] | > 4 mM (inactive)
74 | CCn1ncc(Cl)c1C(=O)Nc1ccncc1 | > 4 mM (inactive)
75 | Cc1cc(=O)[nH]c2ccccc12 | > 4 mM (inactive)
76 | C=C[C@@H](C1=CC(=O)C(OC)=C(OC)C1=O)c1ccccc1 | > 4 mM (inactive)
77 | O=C(O)C1Cc2ccccc2O1 (centres undefined) | > 4 mM (inactive)
78 | COc1ccccc1NC(=O)c1cc[n+]([O-])cc1 | > 4 mM (inactive)
79 | COC(=O)c1sccc1S(=O)(=O)N1CCCC1 | > 4 mM (inactive)
80 | Cc1nc(-c2cccc(N)c2)cs1 | > 4 mM (inactive)
81 | O=C(c1ccccc1)c1cncc(Br)c1 | > 4 mM (inactive)
82 | COCC(=O)Nc1cccc(Br)c1 | > 4 mM (inactive)
83 | Cn1c(O)c(/C=C2\C=CC=N2)c(=O)[nH]c1=S | > 4 mM (inactive)
84 | COc1cccc(-c2cc(=O)c3cc(OC)ccc3o2)c1 | > 4 mM (inactive)
85 | CCOC(=O)C1CCN(Cc2ccccc2)CC1 | > 4 mM (inactive)
86 | COc1ccc(NC(=O)C2CC(=O)N=C(N)S2)cc1 (centres undefined) | > 4 mM (inactive)
87 | COc1ccc(-c2cc(=O)c3cc(OC)ccc3o2)cc1 | > 4 mM (inactive)
88 | COc1cccc(-c2nn(-c3ccccc3)cc2CO)c1 | > 4 mM (inactive)
89 | N[C@@H](C(=O)O)[C@@H](O)[C@H](O)[C@H](O)CO | > 4 mM (inactive)
90 | Cc1nc(SCC#N)c2c3c(sc2n1)CCC3 | > 4 mM (inactive)
91 | c1ccc(NCc2nc(-c3ccccc3)no2)cc1 | > 4 mM (inactive)
92 | NC(=O)c1ccc(Cl)c(N2C(=O)CCC2=O)c1 | > 4 mM (inactive)

Row | Compound | Kd
93 | C[C@H]1O[C@@H](O[C@H]2[C@@H](O)C[C@H](O[C@H]3[C@@H](O)C[C@H](O[C@H]4CC[C@]5(C)C6C[C@@H](O)[C@]7(C)[C@@H](C8=CC(=O)OC8)CC[C@]7(O)C6CC[C@@H]5C4)O[C@@H]3C)O[C@@H]2C)C[C@H](O)[C@@H]1O (some centres undefined) | > 4 mM (inactive)
94 | CCOc1cc(S(=O)(=O)n2nc(C)cc2C)ccc1F | > 4 mM (inactive)
95 | O=C(c1ccccc1)N1CCN(c2ccccc2F)CC1 | > 4 mM (inactive)
96 | O=C(O)CCNc1n[nH]c(=O)[nH]c1=O | > 4 mM (inactive)
97 | Nc1ncnc2c1ncn2CCOc1ccccc1 | > 4 mM (inactive)
98 | CC(=O)OCC[C@H](C)CCC=C(C)C | > 4 mM (inactive)
99 | NC(=O)c1ccc(NC(=O)c2ccco2)cc1 | > 4 mM (inactive)
100 | C=CC(C)(O)CC/C=C(\C)CCC=C(C)C (centres undefined) | > 4 mM (inactive)
101 | Cc1nc(-c2cnccn2)sc1C(=O)O | > 4 mM (inactive)
102 | O=C(O)CC(O)c1nc2ccccc2[nH]1 (centres undefined) | > 4 mM (inactive)
103 | Cn1c(=O)c2ccccc2n(Cc2ccccc2F)c1=O | > 4 mM (inactive)
104 | Cc1cc(C)cc(OC(=O)N2CCOCC2)c1 | > 4 mM (inactive)
105 | CN1C(=O)Cc2cc(S(N)(=O)=O)ccc21 | > 4 mM (inactive)
106 | CN1CCOc2cc(C(=O)O)ccc21 | > 4 mM (inactive)
107 | CC(=O)Nc1ccc2c(c1)C(=O)N(C1CCCCC1)C2=O | > 4 mM (inactive)
108 | CCCCCc1c2c(cc(O)c1C(=O)O)OC(=O)c1c(cc(OC)cc1C(=O)CCCC)O2 | > 4 mM (inactive)
109 | O=C(Cc1cccs1)Nc1ccccn1 | > 4 mM (inactive)
110 | COc1cc2nc[nH]c(=O)c2cc1OC | > 4 mM (inactive)
111 | O=C1CSC(=Nc2cccc(C(F)(F)F)c2)N1 | > 4 mM (inactive)
112 | O=C1c2cccc3cc(S(=O)(=O)O)cc(c23)C(=O)N1O | > 4 mM (inactive)
113 | CC1(C)C=Cc2cc3ccc(=O)oc3cc2O1 | > 4 mM (inactive)
114 | O=C1NC(=S)NC(=O)C1=Cc1ccccc1O | > 4 mM (inactive)
